In the NIST ThermoML archive (doi:10.1021/acs.jced.7b00646):

Experiment: xn = mol fraction of the nth substance listed
Details: 318.15 K, 101.3 kPa, Liquid, Alternating current cell with electrodes

CCCC[n+]1ccn(C)c1.O=S(=O)([N-]S(=O)(=O)C(F)(F)F)C(F)(F)F + CC1COC(=O)O1
Details | electrical conductivity [S/m]
x1 = 1 | 0.877

CCCC[n+]1ccn(C)c1.O=S(=O)([N-]S(=O)(=O)C(F)(F)F)C(F)(F)F + COC(=O)OC
Details | electrical conductivity [S/m]
x1 = 0.05 | 0.587
x1 = 0.1 | 1.36
x1 = 0.2001 | 2.12
x1 = 0.2999 | 2.14
x1 = 0.4 | 1.93
x1 = 0.5002 | 1.68
x1 = 0.5998 | 1.42
x1 = 0.7 | 1.23
x1 = 0.8 | 1.08
x1 = 0.8999 | 0.965
x1 = 1 | 0.877

CCCC[n+]1ccn(C)c1.O=S(=O)([N-]S(=O)(=O)C(F)(F)F)C(F)(F)F + O=C1CCCO1
Details | electrical conductivity [S/m]
x1 = 1 | 0.877

CCCC[n+]1ccn(C)c1.O=S(=O)([N-]S(=O)(=O)C(F)(F)F)C(F)(F)F + O=C1OCCO1
Details | electrical conductivity [S/m]
x1 = 1 | 0.877

CC1COC(=O)O1 (centres undefined) [4-methyl-1,3-dioxolan-2-one] + CCCC[n+]1ccn(C)c1.O=S(=O)([N-]S(=O)(=O)C(F)(F)F)C(F)(F)F
Details | electrical conductivity [S/m]
x2 = 0.05 | 1.08
x2 = 0.1 | 1.51
x2 = 0.2001 | 1.75
x2 = 0.2999 | 1.68
x2 = 0.4 | 1.53
x2 = 0.5002 | 1.36
x2 = 0.5998 | 1.224
x2 = 0.7 | 1.114
x2 = 0.8 | 1.009
x2 = 0.8999 | 0.924

O=C1OCCO1 [ethylene carbonate] + CCCC[n+]1ccn(C)c1.O=S(=O)([N-]S(=O)(=O)C(F)(F)F)C(F)(F)F
Details | electrical conductivity [S/m]
x2 = 0.05 | 1.36
x2 = 0.1 | 1.87
x2 = 0.2001 | 2.06
x2 = 0.2999 | 1.908
x2 = 0.4 | 1.7
x2 = 0.5002 | 1.504
x2 = 0.5998 | 1.313
x2 = 0.7 | 1.17
x2 = 0.8 | 1.07
x2 = 0.8999 | 0.965

O=C1CCCO1 [γ-butyrolactone] + CCCC[n+]1ccn(C)c1.O=S(=O)([N-]S(=O)(=O)C(F)(F)F)C(F)(F)F
Details | electrical conductivity [S/m]
x2 = 0.05 | 1.43
x2 = 0.1 | 1.95
x2 = 0.2001 | 2.13
x2 = 0.2999 | 1.96
x2 = 0.4 | 1.72
x2 = 0.5002 | 1.506
x2 = 0.5998 | 1.307
x2 = 0.7 | 1.16
x2 = 0.8 | 1.03
x2 = 0.8999 | 0.937
